Experimental data taken from ChEMBL document CHEMBL3826952, “Design and Synthesis of 2-Alkylpyrimidine-4,6-diol and 6-Alkylpyridine-2,4-diol as Potent GPR84 Agonists” (ACS Med Chem Lett, 2016).
Active and inactive are the calls of the source. The calls are words filed in the database; no cut-off is given here.

Experiments:
[1] = biological target: T1, Glucose-dependent insulinotropic receptor (Homo sapiens) (UniProt Q8TDV5); assay: Agonist activity at GPR119 (unknown origin) up to 100 uM by Fluo-4 AM dye based calcium mobilization assay; assay type: functional
T1 sequence (whole entry): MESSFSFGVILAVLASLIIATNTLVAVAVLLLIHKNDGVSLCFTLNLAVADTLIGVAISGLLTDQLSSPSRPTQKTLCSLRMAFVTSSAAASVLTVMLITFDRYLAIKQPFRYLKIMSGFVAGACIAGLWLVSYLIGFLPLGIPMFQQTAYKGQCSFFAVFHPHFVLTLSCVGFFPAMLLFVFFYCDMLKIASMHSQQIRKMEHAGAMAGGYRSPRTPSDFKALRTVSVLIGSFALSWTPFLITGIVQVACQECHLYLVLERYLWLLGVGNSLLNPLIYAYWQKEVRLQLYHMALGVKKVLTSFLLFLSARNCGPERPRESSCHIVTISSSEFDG

[2] = biological target: T2, Free fatty acid receptor 1 (Homo sapiens, UniProt O14842); assay: Agonist activity at GPR40 (unknown origin) up to 100 uM by Fluo-4 AM dye based calcium mobilization assay; assay type: functional
[3] = biological target: T3, Free fatty acid receptor 3 (Homo sapiens) (UniProt O14843); assay: Agonist activity at GPR41 (unknown origin) up to 100 uM by Fluo-4 AM dye based calcium mobilization assay; assay type: functional
T3 sequence (whole entry): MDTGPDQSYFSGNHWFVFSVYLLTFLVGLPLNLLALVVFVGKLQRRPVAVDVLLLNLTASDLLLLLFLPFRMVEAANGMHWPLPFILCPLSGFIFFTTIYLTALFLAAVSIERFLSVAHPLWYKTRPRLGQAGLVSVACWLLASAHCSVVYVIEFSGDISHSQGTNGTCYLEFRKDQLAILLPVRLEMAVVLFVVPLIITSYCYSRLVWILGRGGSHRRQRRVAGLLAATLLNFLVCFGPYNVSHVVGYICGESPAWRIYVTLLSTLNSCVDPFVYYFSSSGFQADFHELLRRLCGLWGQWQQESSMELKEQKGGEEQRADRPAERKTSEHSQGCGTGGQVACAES

[4] = Oral bioavailability in ICR mouse at 10 mg/kg administered through gavage measured up to 24 hrs post dose by LC-MS/MS analysis; assay type: ADME, organism-based; conditions: in vivo
[5] = biological target: T4, Free fatty acid receptor 4 (Homo sapiens) (UniProt Q5NUL3); assay: Agonist activity at GPR120 (unknown origin) up to 100 uM by Fluo-4 AM dye based calcium mobilization assay; assay type: functional
T4 sequence (whole entry): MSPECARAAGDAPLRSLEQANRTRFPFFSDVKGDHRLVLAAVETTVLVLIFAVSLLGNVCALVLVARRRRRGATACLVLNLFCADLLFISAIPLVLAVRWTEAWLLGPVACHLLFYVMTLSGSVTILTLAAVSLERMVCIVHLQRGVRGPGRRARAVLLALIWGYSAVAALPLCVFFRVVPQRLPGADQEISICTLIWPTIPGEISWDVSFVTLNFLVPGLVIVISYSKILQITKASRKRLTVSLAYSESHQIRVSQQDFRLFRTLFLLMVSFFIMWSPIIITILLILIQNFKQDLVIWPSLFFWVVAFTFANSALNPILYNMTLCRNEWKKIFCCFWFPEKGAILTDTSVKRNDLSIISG

[6] = Cmax in ICR mouse plasma at 10 mg/kg, po administered through gavage measured up to 24 hrs post dose by LC-MS/MS analysis; assay type: ADME, organism-based; set-up: dose 10 mg/kg, route oral
[7] = AUC (0 to t) in ICR mouse plasma at 10 mg/kg, po administered through gavage measured up to 24 hrs post dose by LC-MS/MS analysis; assay type: ADME, organism-based; set-up: time < 24 hr, dose 10 mg/kg, route oral
[8] = biological target: G-protein coupled receptor 84 (Homo sapiens, UniProt Q9NQS5); assay: Agonist activity at GPR84 (unknown origin) expressed in HEK293 cells coexpressing Galpha16 protein by Fluo-4 AM dye based calcium mobilization assay; assay type: functional, cell-based
[9] = biological target: T5, Free fatty acid receptor 3 (Homo sapiens, UniProt O14843); assay: Agonist activity at GPR41 (unknown origin) by Fluo-4 AM dye based calcium mobilization assay; assay type: functional
T5 sequence (O14843 whole entry): T3 sequence (whole entry)

[10] = biological target: T2, Free fatty acid receptor 1; assay: Agonist activity at GPR40 (unknown origin) by Fluo-4 AM dye based calcium mobilization assay; assay type: functional
[11] = biological target: T6, Glucose-dependent insulinotropic receptor (Homo sapiens, UniProt Q8TDV5); assay: Agonist activity at GPR119 (unknown origin) by Fluo-4 AM dye based calcium mobilization assay; assay type: functional
T6 sequence (Q8TDV5 whole entry): T1 sequence (whole entry)

G-protein coupled receptor 84, sequence (Q9NQS5 whole entry): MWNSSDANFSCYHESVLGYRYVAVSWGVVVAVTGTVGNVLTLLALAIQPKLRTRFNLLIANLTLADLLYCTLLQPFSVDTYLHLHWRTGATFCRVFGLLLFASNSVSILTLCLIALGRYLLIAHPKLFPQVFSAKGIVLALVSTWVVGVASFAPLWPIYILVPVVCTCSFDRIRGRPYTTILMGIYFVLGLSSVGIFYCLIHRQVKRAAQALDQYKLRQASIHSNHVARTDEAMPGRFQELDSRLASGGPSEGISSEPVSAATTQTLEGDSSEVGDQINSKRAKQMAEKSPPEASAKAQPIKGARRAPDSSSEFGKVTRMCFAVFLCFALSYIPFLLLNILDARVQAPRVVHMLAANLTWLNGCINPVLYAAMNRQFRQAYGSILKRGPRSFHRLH
T2 sequence (O14842 whole entry): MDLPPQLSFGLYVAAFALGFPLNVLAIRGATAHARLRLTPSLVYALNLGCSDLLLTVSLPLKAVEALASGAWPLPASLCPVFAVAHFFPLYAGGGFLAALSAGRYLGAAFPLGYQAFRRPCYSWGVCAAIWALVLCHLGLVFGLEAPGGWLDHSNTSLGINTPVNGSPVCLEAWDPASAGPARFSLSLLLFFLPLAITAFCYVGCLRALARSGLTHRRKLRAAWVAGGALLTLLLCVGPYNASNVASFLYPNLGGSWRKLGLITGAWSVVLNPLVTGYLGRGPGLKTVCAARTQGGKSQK

EC50 [8] | SMILES | further results
> 100 µM | N#CCCCCc1nc(O)cc(O)n1 | 
8.85 µM | C#CCCSc1nc(O)cc(O)n1 | 
> 100 µM | CCCCCCSc1nc(O)cc(=O)n1Cc1ccccc1 | 
0.454 µM | CCCCCCc1nc(O)cc(O)n1 | 
0.938 µM | CC/C=C\CCSc1nc(O)cc(O)n1 | 

The next lines start with the compound.

SMILES | EC50 [8] | further results
CCCCCCCCCc1cc(O)cc(O)n1 |  | Activity [1]: inactive; Activity [2]: inactive; Activity [3]: inactive; bioavailability [4]: 24.3%; Activity [5]: inactive; Cmax [6]: 229 ng/mL; AUC(0-t) at 24 h [7]: 399 ng·h/mL
Nc1cc(O)nc(SCCCCc2ccccc2)n1 | > 100 µM | 
Nc1cc(N)nc(SCCCCc2ccccc2)n1 | > 100 µM | 
CCCCCCOc1cc(O)nc(SCCCCCC)n1 | > 100 µM | 
CCCCCCSc1nc(O)cc(=O)n1C | > 100 µM | 
CCCC(=O)[O-].[Na+] [SODIUM BUTYRATE] |  | EC50 [9]: 10.1 µM
Oc1cc(C(F)(F)F)nc(SCCCCc2ccccc2)n1 | > 100 µM | 
Cc1cc(O)nc(SCCCCc2ccccc2)n1 | > 100 µM | 
OCCCCCCCCSc1nc(O)cc(O)n1 | > 100 µM | 
CC/C=C\C/C=C\C/C=C\C/C=C\C/C=C\C/C=C\CCC(=O)O [DOCONEXENT] |  | EC50 [10]: 11.7 µM
Cc1c(O)nc(SCCCCc2ccccc2)nc1O | > 100 µM | 
CC(C)(C)OC(=O)N1CCC(OCc2nc(-c3ccncc3)no2)CC1 |  | EC50 [11]: 5.13 µM
CCCCCCSc1nc(OCCCCCCCO)cc(=O)[nH]1 | > 100 µM | 
